Values after ≈ are worked out from the molar mass of the structure shown. Read-outs that look alike come from different tables or passages of the source.
Legend:
[1] = test system: laboratory adapted HIV strain (NL4-3); test: microbe, parasite or virus in culture; details: for EC50: Human immunodeficiency virus 1, NL43, MT4, MT4 cells infected with NL4-3; for SI (CC50/EC50): ratio of cytotoxicity (CC50) to antiviral activity (EC50)
Experimental: Briefly, the antiviral activity of PL-100 was determined using MT4 cells infected with a laboratory adapted HIV strain (NL4-3). For comparison, seven approved protease inhibitors (PIs) were tested in parallel.
The effect of 40% human serum on the antiviral activity of PL-100 in MT4 cells infected with NL4-3 was therefore evaluated.

[2] = test system: 63 HIV isolates with reduced susceptibility to all approved protease inhibitors; assay type: cell-based, HIV-1; details: for % FC < 2.5 / % FC < 10 / % FC > 50 / Mean FC / Median FC: 63 diverse, multi-PI-resistant strains; for Mean FC / Median FC: FC in IC50 vs NL-4.3
Source text: The cross-resistance profile of PL-100 against 63 HIV isolates with reduced susceptibility to all approved protease inhibitors (P is) including atazanavir was thus tested.
The panel of 63 viral strains was selected based on the following rationale: 1) High-level loss of susceptibility to specific P is; 2) High-level loss of susceptibility to multiple P is; 3) Good representation of the primary mutations. This panel consists of resistant viruses from highly PI-experienced patients with high-level PI resistance.
The genotype of these viruses encompasses a wide variety of mutational patterns. We particularly looked for the following primary PI mutations: D30N, L33F/I, M461/L, G48V, I50L/V, V82A/F/S/T, I84V and L90M as defined by the International AIDS Society (IAS)-USA.
The dark cells indicate a […], the grey cells indicate FC values of 2.5≦FC<10 and the white cells indicate a FC value of; 0≦FC<2.5. The results of cross-resistance profile are further illustrated in the graph of FIG. 1.
In the cross-resistance profiling studies against the 63 resistant strains mentioned herein, EC95 of PL-100 was determined against each strain. The median EC95 represents the concentration required to inhibit 95% of the viral replication of 50% diverse drug-resistant HIV-1 variants tested. Table 8 illustrates the percentage of resistant strains tested with protein-binding adjusted EC95s≦200 ng/ml. The resistant strains are grouped by the number of primary mutations they have.
The EC95 of PL-100 was determined against each of the 63 resistant strains indicated herein. Table 9 illustrates the percentage of resistant strains tested with protein-binding adjusted EC95s≦630 ng/ml. The resistant strains are grouped by the number of primary mutations they have.

[3] = Cytotoxicity in the same cell culture system; assay type: cell-based; details: human, MT4 cells
Experimental: Cytotoxicity of PL-100 and other P is was evaluated in the same cell culture system. The selectivity index (SI) is the ratio of cytotoxicity (CC50) to antiviral activity (EC50). The selective index is similar to the therapeutic index but relates to in vitro studies.

Water solubility = assay type: physicochemical
[4] = Pharmacokinetics of PL-100 and PL-461 in rats; assay type: in vivo, Sprague Dawley rats (Rattus norvegicus)
Experimental: Animal tested are Sprague Dawley rats (species Rattus norvegicus) of 6-7 weeks old at the start of dosing and were obtained from Charles River (Montreal, Canada). The study usually comprises about 6 animals per groups. […] The rats were fasted 3 h. before dosing and 3 h. after dosing. The formulations are prepared as indicated below. The solutions are stable at room temperature over a week and are covered with aluminum foil to avoid lights. […] The dosing volume for all formulations is 2 mL per kg body weight. Blood sample was collected at 15 min, 30 min, 45 min, 1 […] after the dosing. Blood samples were centrifuged to separate the plasma and separated plasma samples were placed into cryovials and frozen at -80° C. for further analysis. Plasma samples together with standards and quality control samples were treated by protein precipitation and then analyzed by HPLC-MS. […] The PK profile was obtained by administration of the test drugs; PL-100 and PL-461 in rats. […] The pharmacokinetic parameters of PL-100 and PL-461 in rats** was compared.

[5] = Study 4: ritonavir administered first, PL-461 15 or 30 minutes later; assay type: in vivo, Sprague Dawley rats; details: test compound 15 or 30 minutes later, compared with the method of studies 1-3
[6] = Plasma concentration after single oral dose in rats (in vivo cleavage of the phosphate group); design: species or system male Sprague-Dawley rats
Experimental: To assess the extent of in vivo cleavage of the phosphate group from the putative compounds, PL-100, PL-462 (based on PL-100), PL-337 and PL-515 (based on PL-337) compounds were administered po (per os, (i.e., by mouth)) (50 mg/kg) to male Sprague-Dawley rats and their plasma concentration measured at different time intervals post-administration.
All test articles (PL-100, PL-462, PL-337 and PL-515) were prepared in different vehicle at the final concentration of 25 mg/mL. The vehicle composition is as follows: (1) 20% ethanol; 50% propylene glycol; 0.05% w/v Tween 20 and water (Mix); (2) PBS buffer (PBS).
Test articles were administered to male Sprague-Dawley rats at a single oral dose of 50 mg/kg. Each article was tested in three rats. Blood samples (0.2-0.3 mL) were collected at the post-dose time of 10, 20, 40, 60, 120, 180 and 360 minutes. The harvested blood was centrifuged to isolate plasma. The resulting plasma was separated and stored at −70° C.
Plasma samples together with standards and quality control samples were treated to precipitate proteins, then analyzed by HPLC-MS, for the presence of PL-462, PL-100, PL-515 and PL-337.

[7] = sample O4-148713, 46I/88S, panel ID 123
[8] = sample O4-148748, 37S/41K/70E, panel ID 115
[9] = sample O4-148749, 37T/41K/70E, panel ID 151

Row | SMILES | EC50 [1] [nM] | SI (CC50/EC50) [1] | % FC < 2.5 [2] [%] | % FC < 10 [2] [%] | % FC > 50 [2] [%] | Mean FC [2] | Median FC [2] | Fold change in IC50 vs. Reference [2, 7] | Fold change in IC50 vs. Reference [2, 8] | Fold change in IC50 vs. Reference [2, 9] | CC50 [3] [nM] | other results
1 | Cc1c(O)cccc1C(=O)N[C@@H](CSc1ccccc1)[C@H](O)CN1C[C@H]2CCCC[C@H]2C[C@H]1C(=O)NC(C)(C)C [Nelfinavir] | 29 | 276 | 10 | 27 | 10 | 31.7 | 15 | 4.6 | 1.6 | 1.9 | 8000 | Fold change in IC50 vs. Reference ([2]; sample O3-129578, 46I/82T/84V, panel ID 11): 1.6
2 | COC(=O)N[C@H](C(=O)NCCCC[C@@H](COP(=O)(O)O)N(CC(C)C)S(=O)(=O)c1ccc(N)cc1)C(c1ccccc1)c1ccccc1 [PL-461, (1S,5S)-(1-{5-[(4-amino-benzenesulfonyl)-isobutyl-amino]-6-phosphonooxy-hexylcarbamoyl}-2,2-diphenyl-ethyl)-carbamic acid methyl ester] | – | – | – | – | – | – | – | – | – | – | – | Fold more water soluble than PL-100 (Water solubility): > 1800 fold; Water solubility (Water solubility; acidic conditions (FIG. 4)): moderate water solubility; Water solubility (Water solubility; pH>4.5 (FIG. 4)): increases dramatically; solubility (Water solubility; water, pH 7.5, aqueous buffer): 145 mg/mL (≈ 206 mM); Fold improved oral bioavailability over PL-100 ([4]; female, Sprague Dawley, rat, in vivo, po): 2-3 fold; Plasma levels of the Lysine-based compound ([4]; rats, after oral dosing, compared to plasma levels of PL-100): insignificant or under detection limits; Increase of pharmacokinetics by sequential administration [5]: as efficient at increasing the pharmacokinetics
3 | Cc1cccc(C)c1OCC(=O)N[C@@H](Cc1ccccc1)[C@@H](O)C[C@H](Cc1ccccc1)NC(=O)[C@H](C(C)C)N1CCCNC1=O [Lopinavir] | 19 | 1,474 | 10 | 37 | 19 | 31.3 | 17.9 | 0.7 | 1 | 1.3 | 28000 | Fold change in IC50 vs. Reference ([2]; sample O3-129586, 30N/88D/90M, panel ID 28): 1.2; Fold change in IC50 vs. Reference ([2]; sample O4-148712, 46I/88S, panel ID 122): 1.7
4 | CC(C)CN(C[C@@H](O)[C@H](Cc1ccccc1)NC(=O)O[C@H]1CCOC1)S(=O)(=O)c1ccc(N)cc1 [Amprenavir] | 47 | – | 14 | 52 | 8 | 18.5 | 9.7 | – | – | – | > 100000 | –
5 | COC(=O)N[C@H](C(=O)NCCCC[C@@H](COP(=O)(O)O)N(CC(C)C)S(=O)(=O)c1ccc(N)c(F)c1)C(c1ccccc1)c1ccccc1 [PL-515, (1S,5S)-(1-{5-[(4-amino-3-fluoro-benzenesulfonyl)-isobutyl-amino]-6-phosphonooxy-hexylcarbamoyl}-2,2-diphenyl-ethyl)-carbamic acid methyl ester] | – | – | – | – | – | – | – | – | – | – | – | AUC ([6]; 50 mg/Kg po, vehicle PBS, 3 rats, released active ingredient detected (PL-100 for PL-462, PL-337 for PL-515)): 1.075 ± 0.625 μg/hr * ml; Detection of the administered phosphate compound in blood samples ([6]; 50 mg/kg po as aqueous solution): None of the PL-462 and PL-515 compounds, delivered as aqueous solutions, are detected
